Source: ChEMBL document CHEMBL1649507, “CMY-29 and CMY-30, two novel plasmid-mediated AmpC beta-lactamases” (2009)
Converted amounts (≈) assume the structure as drawn.

Assays:
Assay type in all cases: functional
Escherichia coli [1] = experiment: Antibacterial activity against Escherichia coli isolate ARL05-705 harboring beta-lactamase CMY 7 by broth microdilution method
Escherichia coli [2] = experiment: Antibacterial activity against Escherichia coli isolate ARL06-39 harboring beta-lactamase CMY 30 by broth microdilution method
Escherichia coli [3] = experiment: Antibacterial activity against Escherichia coli isolate ARL04-413 harboring beta-lactamase CMY 2 by broth microdilution method
Escherichia coli [4] = experiment: Antibacterial activity against Escherichia coli isolate ARL05-909 harboring beta-lactamase CMY 29 by broth microdilution method

SMILES | MIC (Escherichia coli [1]) [µg/mL] | MIC (Escherichia coli [2]) [µg/mL] | MIC (Escherichia coli [3]) [µg/mL] | MIC (Escherichia coli [4]) [µg/mL]
C[C@@H](O)[C@H]1C(=O)N2C(C(=O)O)=C(S[C@@H]3CN[C@H](C(=O)N(C)C)C3)[C@H](C)[C@H]12 [MEROPENEM] | ≤ 0.12 | ≤ 0.12 | ≤ 0.12 | ≤ 0.12
CO/N=C(\C(=O)N[C@@H]1C(=O)N2C(C(=O)[O-])=C(C[N+]3(C)CCCC3)CS[C@H]12)c1csc(N)n1 [CEFEPIME] | 0.25 (≈ 0.52 µM) | 0.5 (≈ 1.04 µM) | 0.25 (≈ 0.52 µM) | 1 (≈ 2.08 µM)
CO[C@@]1(NC(=O)Cc2cccs2)C(=O)N2C(C(=O)O)=C(COC(N)=O)CS[C@@H]21 [CEFOXITIN] | 64 (≈ 150 µM) | 128 (≈ 299 µM) | ≥ 256 | ≥ 256
CO/N=C(\C(=O)N[C@@H]1C(=O)N2C(C(=O)O)=C(CSc3nc(=O)c(O)nn3C)CS[C@H]12)c1csc(N)n1 [CEFTRIAXONE] | 32 (≈ 57.7 µM) | 32 (≈ 57.7 µM) | 32 (≈ 57.7 µM) | 128 (≈ 231 µM)
C[C@@H](O)[C@H]1C(=O)N2C(C(=O)O)=C(SCCNC=N)C[C@H]12 [IMIPENEM ANHYDROUS] | 0.5 (≈ 1.67 µM) | 0.5 (≈ 1.67 µM) | 0.25 (≈ 0.835 µM) | 0.5 (≈ 1.67 µM)
CC(C)(O/N=C(\C(=O)N[C@@H]1C(=O)N2C(C(=O)[O-])=C(C[n+]3ccccc3)CS[C@H]12)c1csc(N)n1)C(=O)O [CEFTAZIDIME] | 64 (≈ 117 µM) | 32 (≈ 58.5 µM) | 64 (≈ 117 µM) | ≥ 128
